Broadly, the solubility is the concentration that dissolves in the medium under given conditions. Read a low solubility as little dissolved substance.

Bounds are passed on as bounds.

Experimental findings from patent US20050145571A1, “Extraction and recovery of ions from a solution” (priority 2001, published 2005) are described below.

The conditions of the data set: at 23° C.

In the case of `O=S(=O)([O-])C(F)(F)C(F)(F)C(F)(F)C(F)(F)C(F)(F)C(F)(F)C(F)(F)C(F)(F)F.[K+]` [KPFS-8, potassium PFS-8], the solubility was ≤ 1000 µg/mL.
